Assay [1] addresses T1, CDK2/CycE (Homo sapiens, UniProt P24941).
T1 construct: GST; purchased ProQinase GmbH (Freiburg, Germany); host or cells: insect cells (Sf9)
The assay can be described thus: CDK2/CycE high ATP kinase assay (TR-FRET, Method 2b). It is filed as biochemical. Particulars: 2 mM ATP. Here is the method:
2b. CDK2/CycE High ATP Kinase Assay:
CDK2/CycE-inhibitory activity of compounds of the present invention at 2 mM adenosine-tri-phosphate (ATP) was quantified employing the CDK2/CycE TR-FRET (TR-FRET=Time Resolved Fluorescence Resonance Energy Transfer) assay as described in the following paragraphs.
Recombinant fusion proteins of GST and human CDK2 and of GST and human CycE, expressed in insect cells (Sf9) and purified by Glutathion-Sepharose affinity chromatography, were purchase from ProQinase GmbH (Freiburg, Germany). As substrate for the kinase reaction biotinylated peptide biotin-Ttds-YISPLKSPYKISEG (C-terminus in amid form) was used which can be purchased e.g. from the company JERINI peptide technologies (Berlin, Germany).
For the assay 50 nl of a 100 fold concentrated solution of the test compound in DMSO was pipetted into a black low volume 384 well microtiter plate (Greiner Bio-One, Frickenhausen, Germany), 2 μl of a solution of CDK2/CycE in aqueous assay buffer [50 mM Tris/HCl pH 8.0, 10 mM MgCl2, 1.0 mM dithiothreitol, 0.1 mM sodium ortho-vanadate, 0.01% (v/v) Nonidet-P40 (Sigma)] were added and the mixture was incubated for 15 min at 22° C. to allow pre-binding of the test compounds to the enzyme before the start of the kinase reaction. […] The concentration of CDK2/CycE was adjusted depending of the activity of the enzyme lot and was chosen appropriate to have the assay in the linear range, typical concentrations were in the range of 15 ng/ml. The reaction was stopped by the addition of 5 μl of a solution of TR-FRET detection reagents (0.2 μM streptavidine-XL665 [Cisbio Bioassays, Codolet, France] and 1 nM anti-RB(pSer807/pSer811)-antibody from BD Pharmingen [#558389] and 1.2 nM LANCE EU-W1024 labeled anti-mouse IgG antibody [Perkin-Elmer, product no. AD0077, as an alternative a Terbium-cryptate-labeled anti-mouse IgG antibody from Cisbio Bioassays can be used]) in an aqueous EDTA-solution (100 mM EDTA, 0.2% (w/v) bovine serum albumin in 100 mM HEPES pH 7.5).
The resulting mixture was incubated 1 h at 22° C. to allow the formation of complex between the phosphorylated biotinylated peptide and the detection reagents. Subsequently the amount of phosphorylated substrate was evaluated by measurement of the resonance energy transfer from the Eu-chelate to the streptavidine-XL. Therefore, the fluorescence emissions at 620 nm and 665 nm after excitation at 350 nm were measured in a TR-FRET reader, e.g. a Rubystar (BMG Labtechnologies, Offenburg, Germany) or a Viewlux (Perkin-Elmer). The ratio of the emissions at 665 nm and at […] was taken as the measure for the amount of phosphorylated substrate. The data were normalised (enzyme reaction without inhibitor=0% inhibition, all other assay components but no enzyme=100% inhibition).
Background: TR-FRET usually uses a lanthanide donor and a delayed reading to cut background.

Assay [2] deals with NCI-H460 cells. As to the kind of experiment: Proliferation assay NCI-H460. It is filed as cell-based, human. Particulars: Homo sapiens, NCI-H460, 96 h, 4 days, crystal violet; read-out: Inhibition of NCI-H460 cell proliferation IC50. Here is the method:
Cultivated tumour cells (HeLa, human cervical tumour cells, ATCC CCL-2; NCI-H460, human non-small cell lung carcinoma cells, ATCC HTB-177; A2780, human ovarian carcinoma cells, ECACC #93112519; DU 145, hormone-independent human prostate carcinoma cells, ATCC HTB-81; HeLa-MaTu-ADR, multidrug-resistant human cervical carcinoma cells, EPO-GmbH Berlin; Caco-2, human colorectal carcinoma cells, ATCC HTB-37; B16F10, mouse melanoma cells, ATCC CRL-6475) were plated at a density of 5,000 cells/well (DU145, HeLa-MaTu-ADR), 3,000 cells/well (NCI-H460, HeLa), 2,500 cells/well (A2780), 1,500 cells/well (Caco-2), or 1,000 cells/well (B16F10) in a 96-well multititer plate in 200 μL of their respective growth medium supplemented 10% fetal calf serum. After 24 hours, the cells of one plate (zero-point plate) were stained with crystal violet (see below), while the medium of the other plates was replaced by fresh culture medium (200 μl), to which the test substances were added in various concentrations (0 μM, as well as in the range of 0.001-10 μM). The cells were incubated for 4 days in the presence of test substances. Cell proliferation was determined by staining the cells with crystal violet: the cells were fixed by adding 20 μl/measuring point of an 11% glutaric aldehyde solution for 15 minutes at room temperature. After three washing cycles of the fixed cells with water, the plates were dried at room temperature. The cells were stained by adding 100 μl/measuring point of a 0.1% crystal violet solution (pH 3.0). After three washing cycles of the stained cells with water, the plates were dried at room temperature. The dye was dissolved by adding 100 μl/measuring point of a 10% acetic acid solution. The extinction was determined by photometry at a wavelength of 595 nm. The change of cell number, in percent, was calculated by normalization of the measured values to the extinction values of the zero-point plate (=0%) and the extinction of the untreated (0 μm) cells (=100%). The IC50 values (inhibitory concentration at 50% of maximal effect) were determined by means of a 4 parameter fit. Non-adherent MOLM-13 human acute myeloid leukemia cells (DSMZ ACC 554) were seeded at a density of 5,000 cells/well in a 96-well multititer plate in 100 μL of growth medium supplemented 10% fetal calf serum. After 24 hours, cell viability of one plate (zero-point plate) was determined with the Cell Titre-Glo Luminescent Cell Viability Assay (Promega), while 50 μL of test compound containing medium was added to the wells of the other plates (final concentrations in the range of 0.001-1 μM and DMSO controls). Cell viability was assessed after 72-hour exposure with the Cell Titre-Glo Luminescent Cell Viability Assay (Promega). IC50 values (inhibitory concentration at 50% of maximal effect) were determined by means of a 4 parameter fit on measurement data which were normalized to vehicle (DMSO) treated cells (=100%) and measurement readings taken immediately before compound exposure (=0%).

On to `CS(=N)(=O)Cc1cc2cc(c1)OCCCCOc1cc(F)ccc1-c1nc(ncc1F)N2` (racemic) [Example 1, (rac)-16,20-Difluoro-9-[(S-methylsulfonimidoyl)methyl]-2,3,4,5-tetrahydro-12H-13,17-(azeno)-11,7-(metheno)-1,6,12,14-benzodioxadiazacyclononadecine], for which the IC50 in assay [1] turned out to be 216 nM; in assay [2], 20 nM.
Take `C[S+]([O-])Cc1cc2nc(c1)OCCCOc1cc(F)ccc1-c1cc(ncc1F)N2` (racemic) [Example 4, (rac)-15,19-Difluoro-8-[(methylsulfinyl)methyl]-3,4-dihydro-2H,11H-10,6-(azeno)-12,16-(metheno)-1,5,11,13-benzodioxadiazacyclooctadecine]: the results for the IC50 in assay [1] and in assay [2] were 32.1 nM and 12 nM, respectively.
On to `CS(=N)(=O)Cc1cc2nc(c1)OCCCOc1cc(F)ccc1-c1cc(ncc1F)N2` (racemic) [Example 5, (rac)-15,19-Difluoro-8-[(S-methylsulfonimidoyl)methyl]-3,4-dihydro-2H,11H-10,6-(azeno)-12,16-(metheno)-1,5,11,13-benzodioxadiazacyclooctadecine], for which the IC50 in assay [1] is 20 nM; in assay [2], 6 nM.
In the same order, the values of `C[S+]([O-])Cc1cc2nc(c1)OCCOc1cc(F)ccc1-c1cc(ncc1F)N2` (racemic) [Example 10, (rac)-14,18-difluoro-7-[(methylsulfinyl)methyl]-2,3-dihydro-10H-9,5-(azeno)-11,15-(metheno)-1,4,10,12-benzodioxadiazacycloheptadecine] are 3500 nM and 393 nM.
Taken in the same sequence, the figures for `CS(=N)(=O)Cc1cc2nc(c1)OCCOc1cc(F)ccc1-c1cc(ncc1F)N2` (racemic) [Example 11, (rac)-14,18-difluoro-7-[(S-methylsulfonimidoyl)methyl]-2,3-dihydro-10H-9,5-(azeno)-11,15-(metheno)-1,4,10,12-benzodioxadiazacycloheptadecine] were 2120 nM and 186 nM.
Turning to `C[S+]([O-])Cc1cc2nc(c1)OCCCCOc1cc(F)ccc1-c1cc(ncc1F)N2` (racemic) [Example 13, (rac)-16,20-difluoro-9-[(methylsulfinyl)methyl]-2,3,4,5-tetrahydro-12H-11,7-(azeno)-13,17-(metheno)-1,6,12,14-benzodioxadiazacyclononadecine], the IC50 came out at 113 nM in assay [1] and 33 nM in assay [2].
As to `CS(=N)(=O)Cc1cc2nc(c1)OCCCCOc1cc(F)ccc1-c1cc(ncc1F)N2` (racemic) [Example 14, (rac)-16,20-difluoro-9-[(S-methylsulfonimidoyl)methyl]-2,3,4,5-tetrahydro-12H-11,7-(azeno)-13,17-(metheno)-1,6,12,14-benzodioxadiazacyclononadecine], the IC50 in assay [1] was determined as 162 nM; in assay [2] it was 19 nM.
Take `CS(=N)(=O)Cc1cc2cc(c1)OCCCOc1cc(F)ccc1-c1nc(ncc1F)N2` (racemic) [Example 15, (rac)-15,19-difluoro-8-[(S-methylsulfonimidoyl)methyl]-3,4-dihydro-2H,11H-12,16-(azeno)-10,6-(metheno)-1,5,11,13-benzodioxadiazacyclooctadecine]: the IC50 is 237 nM in assay [1] and 30 nM in assay [2].
Regarding `CS(=O)(Cc1cc2cc(c1)OCCCOc1cc(F)ccc1-c1nc(ncc1F)N2)=NC(=O)C(F)(F)F` (racemic) [Example 16, (rac)-N-[{[15,19-difluoro-3,4-dihydro-2H,11H-12,16-(azeno)-10,6-(metheno)-1,5,11,13-benzodioxadiazacyclooctadecin-8-yl]methyl}(methyl)oxido-λ^6-sulfanylidene]-2,2,2-trifluoroacetamide], the IC50 in assay [1] turned out to be 670 nM; in assay [2], 26 nM.
With `CCNC(=O)N=S(C)(=O)Cc1cc2nc(c1)OCCCOc1cc(F)ccc1-c1cc(ncc1F)N2` (racemic) [Example 17, (rac)-1-[{[15,19-difluoro-3,4-dihydro-2H,11H-10,6-(azeno)-12,16-(metheno)-1,5,11,13-benzodioxadiazacyclooctadecin-8-yl]methyl}(methyl)oxido-λ^6-sulfanylidene]-3-ethylurea], the IC50 in assay [1] amounted to 35.9 nM; in assay [2] it was 31 nM.
Consider `CC(=O)N=S(C)(=O)Cc1cc2nc(c1)OCCCOc1cc(F)ccc1-c1cc(ncc1F)N2` (racemic) [Example 18, (rac)-N-[{[15,19-difluoro-3,4-dihydro-2H,11H-10,6-(azeno)-12,16-(metheno)-1,5,11,13-benzodioxadiazacyclooctadecin-8-yl]methyl}(methyl)oxido-λ^6-sulfanylidene]acetamide], for which the IC50 came out at 63.2 nM in assay [1] and 27 nM in assay [2].
Regarding `CN=S(C)(=O)Cc1cc2nc(c1)OCCCOc1cc(F)ccc1-c1cc(ncc1F)N2` (racemic) [Example 19, (rac)-8-[(N,S-dimethylsulfonimidoyl)methyl]-15,19-difluoro-3,4-dihydro-2H,11H-10,6-(azeno)-12,16-(metheno)-1,5,11,13-benzodioxadiazacyclooctadecine], the IC50 in assay [1] came to 159 nM; in assay [2], 49 nM.
Regarding `CCOC(=O)N=S(C)(=O)Cc1cc2nc(c1)OCCCOc1cc(F)ccc1-c1cc(ncc1F)N2` (racemic) [Example 20, (rac)-ethyl [{[15,19-difluoro-3,4-dihydro-2H,11H-10,6-(azeno)-12,16-(metheno)-1,5,11,13-benzodioxadiazacyclooctadecin-8-yl]methyl}(methyl)oxido-λ^6-sulfanylidene]carbamate], the figures for the IC50 in assay [1] and in assay [2] were 44.6 nM and 35 nM, respectively.
On to `CSCc1cc2nc(c1)OCCOc1cc(F)ccc1-c1cc(ncc1F)N2` [Example 9, 14,18-Difluoro-7-[(methylsulfanyl)methyl]-2,3-dihydro-10H-9,5-(azeno)-11,15-(metheno)-1,4,10,12-benzodioxadiazacycloheptadecine], for which the IC50 in assay [1] is greater than 20000 nM.

Values taken from patent publication US9963464B2, “Macrocyclic compounds” (Bayer Pharma Aktiengesellschaft, priority 2014, dated 2018).
